In patent US10660900B2 (priority 2014, dated 2020):
“And” between values parts separate entries of the source, which are not always exact repeats. Equal values may be shown once. “Also recorded” adds a separate entry of the source.

Tests used:
[1] = Treatment emergent adverse events in opioid-dependent patients, single dose
[2] = target: OPRK (Homo sapiens, UniProt P41145); test: biochemical; format: binding; parameters: expressed in transfected cells; host or cells: CHO-K1; details: [3H]-U69,593 Binding; This work
[3] = target: opioid receptor delta (OPRD) (Bos taurus, UniProt F1N083); details: printed in the SEM column; literature; cited from earlier work
[4] = test system: human opioid receptor delta (OPRD); details: Pearl, Herrick-Davis et al. 1995; cited from earlier work
[5] = Single ascending oral dose pharmacokinetics of noribogaine in healthy volunteers (plasma and urine, LCMSMS); details: for CL/F: mean (SD), n = 6
[6] = target: T1, human OPRM (Homo sapiens, UniProt P35372); test: biochemical; format: binding; parameters: expressed in transfected cells; host or cells: CHO-K1 (cell line provided by Dr. Toll, Torrey Pines Institute); membranes prepared in house
[7] = QT interval in opioid-dependent patients; format: in vivo, human; details: 60, 120, 180 mg; first 24 hours; correlated with serum concentration
Method: Patients' QT intervals were evaluated at regular time points throughout the study. […] A goodness-of-fit plot for the observed and predicted relation between noribogaine plasma levels and ΔΔQTc1 is provided in FIG. 9C.

[8] = test system: human OPRK; test: biochemical; format: binding
[9] = target: T1, human OPRM; test: biochemical; parameters: expressed in transfected cells; host or cells: CHO-K1 (cell line provided by Dr. Toll, Torrey Pines Institute); membranes prepared in house
[10] = target: calf OPRK (Bos taurus, UniProt Q2KIP6); details: cited from earlier work
[11] = Safety and tolerability in healthy volunteers (adverse events, ECG, vital signs, oximetry); format: in vivo, human
Method: Pulse oximetry and capnography data were collected continuously using a GE Carescape B650 monitoring system from 2 hours prior to dosing and until six hours after dosing, and thereafter at 12, 24, 48 and 72 hours post-dosing. Additional oximetry data were collected at 120, 168 and 216 hours. Pupillary miosis was assessed by pupillometry. Dark-adapted pupil diameter was measured in triplicate using a Neuroptics PLR-200 pupillometer under standardized light intensity (<5 lux) pre-dose, and at 2, 4, 6, 12, 24, 48, 72, 96, 120, 168 and 216 hours post-dosing.
Safety and tolerability of noribogaine were tested in the group of volunteers from Example 1. Cold pressor testing was conducted in 1° C. water according to the method of Mitchell et al. (J Pain 5:233-237, 2004) pre-dose, 6, 24, 48, 72 and 216 hours post-dosing. Safety evaluations included clinical monitoring, recording of adverse events (AEs), safety laboratory tests, vital signs, ECG telemetry from −2 h to 6 h after dosing, and 12-lead electrocardiograms (ECGs) up to 216 hours post-dosing.

T1 sequence (P35372 whole entry): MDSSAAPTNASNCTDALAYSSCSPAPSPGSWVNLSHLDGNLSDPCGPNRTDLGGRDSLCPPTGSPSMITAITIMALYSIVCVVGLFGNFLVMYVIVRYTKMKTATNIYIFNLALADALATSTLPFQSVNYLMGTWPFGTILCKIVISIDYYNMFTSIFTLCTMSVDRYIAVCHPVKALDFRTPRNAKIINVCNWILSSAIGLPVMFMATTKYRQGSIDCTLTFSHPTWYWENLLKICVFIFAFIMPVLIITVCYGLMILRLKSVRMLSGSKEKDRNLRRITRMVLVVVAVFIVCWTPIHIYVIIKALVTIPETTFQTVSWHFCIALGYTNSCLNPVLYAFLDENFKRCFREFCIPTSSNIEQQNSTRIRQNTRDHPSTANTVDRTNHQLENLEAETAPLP
calf OPRK, sequence (Q2KIP6 whole entry): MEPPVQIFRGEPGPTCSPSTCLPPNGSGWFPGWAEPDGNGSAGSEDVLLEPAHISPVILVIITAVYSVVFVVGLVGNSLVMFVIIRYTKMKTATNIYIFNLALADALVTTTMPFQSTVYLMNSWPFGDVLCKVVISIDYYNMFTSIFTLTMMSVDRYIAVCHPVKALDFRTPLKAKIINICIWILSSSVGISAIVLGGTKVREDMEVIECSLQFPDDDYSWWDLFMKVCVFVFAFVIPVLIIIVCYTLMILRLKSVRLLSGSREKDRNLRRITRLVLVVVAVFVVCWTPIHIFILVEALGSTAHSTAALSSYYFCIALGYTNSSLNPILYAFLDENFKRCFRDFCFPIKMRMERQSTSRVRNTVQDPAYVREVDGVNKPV
opioid receptor delta (OPRD), sequence (F1N083 1-372): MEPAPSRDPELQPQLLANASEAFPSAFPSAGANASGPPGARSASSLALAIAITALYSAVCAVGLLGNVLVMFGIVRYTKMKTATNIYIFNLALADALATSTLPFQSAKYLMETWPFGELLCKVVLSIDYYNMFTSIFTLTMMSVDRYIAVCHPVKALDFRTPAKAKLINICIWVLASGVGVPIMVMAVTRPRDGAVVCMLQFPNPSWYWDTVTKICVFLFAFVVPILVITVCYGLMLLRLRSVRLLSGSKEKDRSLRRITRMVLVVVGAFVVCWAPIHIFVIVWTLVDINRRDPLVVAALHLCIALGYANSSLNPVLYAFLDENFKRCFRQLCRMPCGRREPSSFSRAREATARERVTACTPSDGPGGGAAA
OPRK, sequence (P41145 whole entry): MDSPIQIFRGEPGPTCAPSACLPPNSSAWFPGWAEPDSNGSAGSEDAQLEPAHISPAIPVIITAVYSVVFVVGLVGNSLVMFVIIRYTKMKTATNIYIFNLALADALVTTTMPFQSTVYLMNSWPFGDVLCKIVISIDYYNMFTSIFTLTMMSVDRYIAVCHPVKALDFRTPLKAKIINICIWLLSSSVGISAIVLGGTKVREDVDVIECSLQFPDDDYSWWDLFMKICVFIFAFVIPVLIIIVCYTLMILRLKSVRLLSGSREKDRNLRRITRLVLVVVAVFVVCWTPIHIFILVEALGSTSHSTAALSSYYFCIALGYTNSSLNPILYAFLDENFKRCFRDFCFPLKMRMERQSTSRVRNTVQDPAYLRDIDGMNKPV

## CC[C@H]1CC2C[C@H]3c4[nH]c5ccc(O)cc5c4CCN(C2)C13 [Noribogaine, noribogaine]
[1]; 60 mg noribogaine (N = 6)
  Catheter Site Infection: 0
  Catheter Site Pain: 0
  Catheter Site Related Reaction: 0
  Cellulitis: 0
  Diarrhoea: 0
  Diy Mouth: 0
  Ear and Labyrinth Disorders: 0
  Epistaxis: 0
  Euphoric Mood: 0
  General Disorders and Administration Site Conditions: 0
  Hyperaesthesia: 0
  Infections and Infestations: 0
  Limb Discomfort: 0
  Malaise: 0
  Nausea: 0
  Oropharyngeal Pain: 0
  Pseudoparalysis: 0
  Respiratory, Thoracic and Mediastinal Disorders: 0
  Rhinorrhoea: 0
  Skin Discomfort: 0
  Skin Irritation: 0
  Skin and Subcutaneous Tissue Disorders: 0
  Somnoience: 0
  Tinnitus: 0
  Tremor: 0
  Urinary Tract Infection: 0
  Vomiting: 0
[1]; 120 mg noribogaine (N = 6)
  Back Pain: 0
  Catheter Site Infection: 0
  Catheter Site Related Reaction: 0
  Depressed Mood: 0
  Dry Eye: 0
  Dyspepsia: 0
  Euphoric Mood: 0
  Limb Discomfort: 0
  Malaise: 0
  Musculoskeletal and Connective Tissue Disorders: 0
  Psychiatric Disorders: 0
  Somnoience: 0
  Urinary Tract Infection: 0
[1]; 180 mg noribogaine (N = 6)
  Catheter Site Infection: 0
  Catheter Site Pain: 0
  Depressed Mood: 0
  Diarrhoea: 0
  Dry Eye: 0
  Dyspepsia: 0
  Ear and Labyrinth Disorders: 0
  Epistaxis: 0
  Euphoric Mood: 0
  Hyperaesthesia: 0
  Malaise: 0
  Oropharyngeal Pain: 0
  Pseudoparalysis: 0
  Psychiatric Disorders: 0
  Respiratory, Thoracic and Mediastinal Disorders: 0
  Rhinorrhoea: 0
  Skin Discomfort: 0
  Skin Irritation: 0
  Skin and Subcutaneous Tissue Disorders: 0
  Somnoience: 0
  Tinnitus: 0
  Tremor: 0
[1]; 60, 120 or 180 mg single dose
  hallucinatory effects: no hallucinatory effects
[2]
  pKi: 6.1
[3]
  Ki: 24.7 µM
[4]
  less affine at OPRD than at OPRK: ~30 ×
[5]; 3 mg single oral noribogaine
  CL/F: 41.4 (7.0) L/h
[5]; 10 mg single oral noribogaine
  CL/F: 42.3 (12.0) L/h
[5]; 30 mg single oral noribogaine
  CL/F: 46.9 (16.4) L/h
[5]; 60 mg single oral noribogaine
  CL/F: 34.0 (11.4) L/h
[5]; 3-60 mg single oral doses
  dose relation of Cmax and AUC: increased linearly with dose
[5]; across dose groups
  Volume of distribution: 1417 to 3086 L
[5]; plasma, across dose groups
  time of peak concentrations after oral noribogaine dosing: 2 to 3 h
[6]
  pKi: 5.8
[7]
  QT interval prolongation (ΔQTcI): dose-dependent increase in QT interval prolongation
[8]; from literature (or literature/this work) values
  ΔpKi = pKi(OPRK) − pKi(OPRM), OPRK Specificity: 0.4
[8]; from values of this work
  ΔpKi = pKi(OPRK) − pKi(OPRM), OPRK Specificity: 0.3
[9]
  Efficacy (Emax): 9.4%
  Efficacy (inhibition): −100~ %
  e-coupling (pKi-pEC50): 1.02
  e-coupling (pKi-pKe): 1.10
  pEC50: 4.8
  right-shift of EC50 of DAMGO and morphine: ~1 log
[9]; Ke
  Ki: 19 µM and 28 µM
[9]; read-out: Efficacy (Emax)
  Emax: 10%
[10]; calf OPRK
  Ki: 0.96 µM
[10]; calf receptor, literature
  pKi: 6.0
[11]; 3 mg dose group, two subjects
  number of adverse events reported: five
[11]; 3 mg noribogaine
  adverse events, Mild: Back pain; also recorded: Dizziness; also recorded: Epistaxis; also recorded: Headache
  adverse events, Moderate: Headache
[11]; 10 mg dose group, single subject
  number of adverse events reported: one
[11]; 10 mg noribogaine
  adverse events, Mild: Headache
[11]; 30 mg dose group, single subject
  number of adverse events reported: one
[11]; 30 mg noribogaine
  adverse events, Mild: Headache
[11]; 3-60 mg single oral doses
  oximetry, capnography, respiratory rate: no changes in oximetry or capnography, or changes in respiratory rate
  vital signs and safety laboratory tests: no changes in vital signs or safety laboratory tests of note
[11]; all dose groups, any time
  QTcF values above 500 msec: no QTcF values >500 msec
[11]; one subject, 10 mg noribogaine, 24 hours post-dosing
  single increase in QTcF: > 60 ms
